In US20230085307A1, “PYRIDAZINONE COMPOUND AND HERBICIDE” (NISSAN CHEMICAL CORPORATION, priority 2019, published 2023):

Assays:
windgrass [1] = assay: Test Example 5: herbicidal effect by foliage application, plastic box (Table 20, symbol L); type: in vivo, windgrass (Apera spica-venti); conditions: evaluated three weeks after application
Procedure, shortened: (§1)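 Plants were sown into sterilized diluvial soil under about 1.5 cm cover and kept in a greenhouse at 25° C. to 30° C. Fourteen days on, foliage received an even spray of the diluted emulsion. Herbicidal or crop effect was judged three weeks afterwards.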

lambsquarters [2] = assay: Test Example 4: herbicidal effect by soil treatment (Table 19, symbol O); type: in vivo, lambsquarters (Chenopodium album); conditions: amount of applied herbicide 320 g/ha
Procedure, shortened: (§2)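 Pre-emergence style soil spray: seeds under ~1.5 cm sterilized diluvial soil received a uniform coat of emulsion diluted to the predetermined herbicide amount. Greenhouse 25–30° C; readout at week three on previously defined criteria.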

green foxtail [3] = assay: Test Example 5: herbicidal effect by foliage application, plastic box (Table 20, symbol G); type: in vivo, green foxtail (Setaria viridis); conditions: evaluated three weeks after application
Procedure, shortened: as §1

southern crabgrass [4] = assay: Test Example 4: herbicidal effect by soil treatment (Table 19, symbol F); type: in vivo, southern crabgrass (Digitaria ciliaris); conditions: amount of applied herbicide 320 g/ha
Procedure, shortened: as §2

windgrass [5] = assay: Test Example 4: herbicidal effect by soil treatment (Table 19, symbol L); type: in vivo, windgrass (Apera spica-venti); conditions: amount of applied herbicide 320 g/ha
Procedure, shortened: as §2

Italian ryegrass [6] = assay: Test Example 4: herbicidal effect by soil treatment (Table 19, symbol K); type: in vivo, Italian ryegrass (Lolium multiflorum); conditions: amount of applied herbicide 320 g/ha
Procedure, shortened: as §2

Chinese sprangletop = assay: Test Example 3: herbicidal effect by foliage application, Wagner pot (Table 18, symbol D); type: in vivo, chinese sprangletop (Leptochloa chinensis)
Procedure, shortened: (§3)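 Plants were sown in alluvial soil held under 0.1–0.5 cm standing water and grown 14 days in a greenhouse at 25–30 °C. An emulsifiable formulation, water-diluted to the set dose, was then sprayed onto the foliage, and effects were scored three weeks later using previously defined criteria.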

barnyard grass [7] = assay: Test Example 4: herbicidal effect by soil treatment (Table 19, symbol H); type: in vivo, barnyard grass (Echinochloa crus-galli); conditions: amount of applied herbicide 320 g/ha
Procedure, shortened: as §2

wild oat [8] = assay: Test Example 4: herbicidal effect by soil treatment (Table 19, symbol I); type: in vivo, wild oat (Avena fatua); conditions: amount of applied herbicide 320 g/ha
Procedure, shortened: as §2

redroot pigweed [9] = assay: Test Example 4: herbicidal effect by soil treatment (Table 19, symbol N); type: in vivo, redroot pigweed (Amaranthus retroflexus); conditions: amount of applied herbicide 320 g/ha
Procedure, shortened: as §2

lambsquarters [10] = assay: Test Example 5: herbicidal effect by foliage application, plastic box (Table 20, symbol O); type: in vivo, lambsquarters (Chenopodium album); conditions: evaluated three weeks after application
Procedure, shortened: as §1

velvetleaf [11] = assay: Test Example 5: herbicidal effect by foliage application, plastic box (Table 20, symbol M); type: in vivo, velvetleaf (Abutilon theophrasti); conditions: evaluated three weeks after application
Procedure, shortened: as §1

barnyard grass [12] = assay: Test Example 5: herbicidal effect by foliage application, plastic box (Table 20, symbol H); type: in vivo, barnyard grass (Echinochloa crus-galli); conditions: evaluated three weeks after application
Procedure, shortened: as §1

persian speedwell [13] = assay: Test Example 4: herbicidal effect by soil treatment (Table 19, symbol R); type: in vivo, Persian speedwell (Veronica persica); conditions: amount of applied herbicide 320 g/ha
Procedure, shortened: as §2

green foxtail [14] = assay: Test Example 4: herbicidal effect by soil treatment (Table 19, symbol G); type: in vivo, green foxtail (Setaria viridis); conditions: amount of applied herbicide 320 g/ha
Procedure, shortened: as §2

wild oat [15] = assay: Test Example 5: herbicidal effect by foliage application, plastic box (Table 20, symbol I); type: in vivo, wild oat (Avena fatua); conditions: evaluated three weeks after application
Procedure, shortened: as §1

velvetleaf [16] = assay: Test Example 4: herbicidal effect by soil treatment (Table 19, symbol M); type: in vivo, velvetleaf (Abutilon theophrasti); conditions: amount of applied herbicide 320 g/ha
Procedure, shortened: as §2

barnyard grass [17] = assay: Test Example 3: herbicidal effect by foliage application, Wagner pot (Table 18, symbol H); type: in vivo, barnyard grass (Echinochloa crus-galli)
Procedure, shortened: as §3

Italian ryegrass [18] = assay: Test Example 5: herbicidal effect by foliage application, plastic box (Table 20, symbol K); type: in vivo, Italian ryegrass (Lolium multiflorum); conditions: evaluated three weeks after application
Procedure, shortened: as §1

blackgrass [19] = assay: Test Example 5: herbicidal effect by foliage application, plastic box (Table 20, symbol J); type: in vivo, blackgrass (Alopecurus myosuroides); conditions: evaluated three weeks after application
Procedure, shortened: as §1

chickweed [20] = assay: Test Example 4: herbicidal effect by soil treatment (Table 19, symbol P); type: in vivo, common chickweed (Stellaria media); conditions: amount of applied herbicide 320 g/ha
Procedure, shortened: as §2

persian speedwell [21] = assay: Test Example 5: herbicidal effect by foliage application, plastic box (Table 20, symbol R); type: in vivo, Persian speedwell (Veronica persica); conditions: evaluated three weeks after application
Procedure, shortened: as §1

redroot pigweed [22] = assay: Test Example 5: herbicidal effect by foliage application, plastic box (Table 20, symbol N); type: in vivo, redroot pigweed (Amaranthus retroflexus); conditions: evaluated three weeks after application
Procedure, shortened: as §1

chickweed [23] = assay: Test Example 5: herbicidal effect by foliage application, plastic box (Table 20, symbol P); type: in vivo, common chickweed (Stellaria media); conditions: evaluated three weeks after application
Procedure, shortened: as §1

southern crabgrass [24] = assay: Test Example 5: herbicidal effect by foliage application, plastic box (Table 20, symbol F); type: in vivo, southern crabgrass (Digitaria ciliaris); conditions: evaluated three weeks after application
Procedure, shortened: as §1

rice flat sedge = assay: Test Example 3: herbicidal effect by foliage application, Wagner pot (Table 18, symbol E); type: in vivo, rice flat sedge (Cyperus iria)
Procedure, shortened: as §3

blackgrass [25] = assay: Test Example 4: herbicidal effect by soil treatment (Table 19, symbol J); type: in vivo, blackgrass (Alopecurus myosuroides); conditions: amount of applied herbicide 320 g/ha
Procedure, shortened: as §2

[26] = amount of applied herbicide 320 g/ha
[27] = amount of applied herbicide 320 g/ha, foliage application after 14-day growth

Structure (SMILES): COCCOC(=O)Oc1c(C)nn(C)c(=O)c1-c1c(-c2ccc(F)cc2OC)sc2ccc(Cl)cc12 [2-114]
- herbicidal effect on L: windgrass (windgrass [1]; foliage application, 320 g/ha): 4 (Herbicidal rate of 70% or more and less than 90%)
- O: lambsquarters, herbicidal effect rating (lambsquarters [2]): 3 (Herbicidal rate of 40% or more and less than 70%)
- herbicidal effect on G: green foxtail (green foxtail [3]; foliage application, 320 g/ha): 1 (Herbicidal rate of 5% or more and less than 20%)
- F: southern crabgrass, herbicidal effect rating (southern crabgrass [4]): 0 (Herbicidal rate of 5% or less (almost no effect))
- L: windgrass, herbicidal effect rating (windgrass [5]): 0 (Herbicidal rate of 5% or less (almost no effect))
- K: Italian ryegrass, herbicidal effect rating (Italian ryegrass [6]): 0 (Herbicidal rate of 5% or less (almost no effect))
- herbicidal effect on D: Chinese sprangletop (Chinese sprangletop; [26]): 3 (Herbicidal rate of 40% or more and less than 70%)
- H: barnyard grass, herbicidal effect rating (barnyard grass [7]): 0 (Herbicidal rate of 5% or less (almost no effect))
- I: wild oat, herbicidal effect rating (wild oat [8]): 0 (Herbicidal rate of 5% or less (almost no effect))
- N: redroot pigweed, herbicidal effect rating (redroot pigweed [9]): 5 (Herbicidal rate of 90% or more (almost completely withered))
- herbicidal effect on O: lambsquarters (lambsquarters [10]; foliage application, 320 g/ha): 3 (Herbicidal rate of 40% or more and less than 70%)
- herbicidal effect on M: velvetleaf (velvetleaf [11]; foliage application, 320 g/ha): 3 (Herbicidal rate of 40% or more and less than 70%)
- herbicidal effect on H: barnyard grass (barnyard grass [12]; foliage application, 320 g/ha): 3 (Herbicidal rate of 40% or more and less than 70%)
- R: persian speedwell, herbicidal effect rating (persian speedwell [13]): 0 (Herbicidal rate of 5% or less (almost no effect))
- G: green foxtail, herbicidal effect rating (green foxtail [14]): 0 (Herbicidal rate of 5% or less (almost no effect))
- herbicidal effect on I: wild oat (wild oat [15]; foliage application, 320 g/ha): 0 (Herbicidal rate of 5% or less (almost no effect))
- M: velvetleaf, herbicidal effect rating (velvetleaf [16]): 0 (Herbicidal rate of 5% or less (almost no effect))
- herbicidal effect on H: barnyard grass (barnyard grass [17]; [26]): 4 (Herbicidal rate of 70% or more and less than 90%)
- herbicidal effect on K: Italian ryegrass (Italian ryegrass [18]; foliage application, 320 g/ha): 0 (Herbicidal rate of 5% or less (almost no effect))
- herbicidal effect on J: blackgrass (blackgrass [19]; foliage application, 320 g/ha): 4 (Herbicidal rate of 70% or more and less than 90%)
- P: chickweed, herbicidal effect rating (chickweed [20]): 4 (Herbicidal rate of 70% or more and less than 90%)
- herbicidal effect on R: persian speedwell (persian speedwell [21]; foliage application, 320 g/ha): 3 (Herbicidal rate of 40% or more and less than 70%)
- herbicidal effect on N: redroot pigweed (redroot pigweed [22]; foliage application, 320 g/ha): 1 (Herbicidal rate of 5% or more and less than 20%)
- herbicidal effect on P: chickweed (chickweed [23]; foliage application, 320 g/ha): 5 (Herbicidal rate of 90% or more (almost completely withered))
- herbicidal effect on F: southern crabgrass (southern crabgrass [24]; foliage application, 320 g/ha): 0 (Herbicidal rate of 5% or less (almost no effect))
- herbicidal effect on E: rice flat sedge (rice flat sedge; [26]): 5 (Herbicidal rate of 90% or more (almost completely withered))

Structure (SMILES): COc1cc(F)ccc1-c1sc2cc(F)c(F)cc2c1-c1c(O)c(C)nn(C)c1=O [5-029]
- Herbicidal effect by foliage application, L: windgrass (windgrass [1]; [27]): 5 (Herbicidal rate of 90% or more (almost completely withered))
- O: lambsquarters, herbicidal effect grade (lambsquarters [2]): 5 (Herbicidal rate of 90% or more (almost completely withered))
- Herbicidal effect by foliage application, G: green foxtail (green foxtail [3]; [27]): 5 (Herbicidal rate of 90% or more (almost completely withered))
- F: southern crabgrass, herbicidal effect grade (southern crabgrass [4]): 0 (Herbicidal rate of 5% or less (almost no effect))
- K: Italian ryegrass, herbicidal effect grade (Italian ryegrass [6]): 1 (Herbicidal rate of 5% or more and less than 20%)
- herbicidal effect on Chinese sprangletop (D) (Chinese sprangletop; 320 g/ha): 4 (Herbicidal rate of 70% or more and less than 90%)
- H: barnyard grass, herbicidal effect grade (barnyard grass [7]): 0 (Herbicidal rate of 5% or less (almost no effect))
- I: wild oat, herbicidal effect grade (wild oat [8]): 2 (Herbicidal rate of 20% or more and less than 40%)
- N: redroot pigweed, herbicidal effect grade (redroot pigweed [9]): 5 (Herbicidal rate of 90% or more (almost completely withered))
- Herbicidal effect by foliage application, O: lambsquarters (lambsquarters [10]; [27]): 5 (Herbicidal rate of 90% or more (almost completely withered))
- Herbicidal effect by foliage application, M: velvetleaf (velvetleaf [11]; [27]): 5 (Herbicidal rate of 90% or more (almost completely withered))
- Herbicidal effect by foliage application, H: barnyard grass (barnyard grass [12]; [27]): 5 (Herbicidal rate of 90% or more (almost completely withered))
- R: persian speedwell, herbicidal effect grade (persian speedwell [13]): 3 (Herbicidal rate of 40% or more and less than 70%)
- G: green foxtail, herbicidal effect grade (green foxtail [14]): 3 (Herbicidal rate of 40% or more and less than 70%)
- Herbicidal effect by foliage application, I: wild oat (wild oat [15]; [27]): 4 (Herbicidal rate of 70% or more and less than 90%)
- M: velvetleaf, herbicidal effect grade (velvetleaf [16]): 3 (Herbicidal rate of 40% or more and less than 70%)
- herbicidal effect on barnyard grass (H) (barnyard grass [17]; 320 g/ha): 4 (Herbicidal rate of 70% or more and less than 90%)
- J: blackgrass, herbicidal effect grade (blackgrass [25]): 4 (Herbicidal rate of 70% or more and less than 90%)
- Herbicidal effect by foliage application, K: Italian ryegrass (Italian ryegrass [18]; [27]): 4 (Herbicidal rate of 70% or more and less than 90%)
- Herbicidal effect by foliage application, J: blackgrass (blackgrass [19]; [27]): 4 (Herbicidal rate of 70% or more and less than 90%)
- P: chickweed, herbicidal effect grade (chickweed [20]): 3 (Herbicidal rate of 40% or more and less than 70%)
- Herbicidal effect by foliage application, R: persian speedwell (persian speedwell [21]; [27]): 5 (Herbicidal rate of 90% or more (almost completely withered))
- Herbicidal effect by foliage application, N: redroot pigweed (redroot pigweed [22]; [27]): 5 (Herbicidal rate of 90% or more (almost completely withered))
- Herbicidal effect by foliage application, P: chickweed (chickweed [23]; [27]): 5 (Herbicidal rate of 90% or more (almost completely withered))
- Herbicidal effect by foliage application, F: southern crabgrass (southern crabgrass [24]; [27]): 3 (Herbicidal rate of 40% or more and less than 70%)
- herbicidal effect on rice flat sedge (E) (rice flat sedge; 320 g/ha): 5 (Herbicidal rate of 90% or more (almost completely withered))
